Reference: patent publication EP2249825B1, “TREATMENT METHODS AND COMPOSITIONS FOR LUNG CANCER, ADENOCARCINOMA, AND OTHER MEDICAL CONDITIONS” (BIONUMERIK PHARMACEUTICALS, INC., priority 2008, dated 2009)

What was measured:
[1] = test system: non-small cell lung carcinoma (NSCLC); assay: Japan Phase III Clinical Trial: patient survival, NSCLC; format: in vivo, patients
From the text: (§1) As utilized herein, the term "clinical trial" or "trial", refers to the Japan Phase III Clinical Trial disclosed in the present invention which was utilized to show the ability of Tavocept™ (also referred to in the literature as disodium 2,2'-dithio-bis-ethane sulfonate, dimesna, or BNP7787) to prevent and/or reduce peripheral neuropathy induced by paclitaxel/cisplatin combination therapy. The incidence and severity of adverse reactions, time to their onset, etc. and the like, were compared between patients treated with Tavocept™ and those given a placebo using Quality of Life (QOL) questionnaires (i.e., Peripheral Neuropathy Questionnaire (PNQ^©) and CIPN-20)) and the National Cancer Institute - Common Toxicity Criteria (NCI-CTC). The effects of Tavocept™ on the Quality of Life (QOL) of patients under anticancer treatment was also evaluated using the QOL questionnaire, EORTC QLQ-C30. Whether or not Tavocept™ would affect the efficacy of paclitaxel/cisplatin combination therapy was also evaluated based on the response rate, aggravation-free survival period, and total survival period. In order to make all these evaluations, Tavocept™ (approximately14-22 g/m^2, most preferably approximately 18.4 g/m^2) or placebo (0.9% NaCl) was administered to non-small cell lung carcinoma (NSCLC) patients, including adenocarcinoma patients, under chemotherapy with paclitaxel (approximately 160-190 mg/m^2, most preferably approximately 175 mg/m^2) and cisplatin (approximately 60-100 mg/m^2, most preferably approximately 80 mg/m^2), every 3 weeks (and repeated for a minimum of 2 cycles).
(§2) Data was recently unblinded from a multicenter double-blind randomized placebo-controlled Phase III clinical trial of the Formula (I) compound Tavocept™ (also known as BNP7787, disodium 2,2'-dithio-bis-ethane sulfonate, and dimesna) conducted in Japan (hereinafter the "Japan Phase III Clinical Trial") and involving patients with advanced non-small cell lung carcinoma (NSCLC) who received the chemotherapeutic drugs paclitaxel and cisplatin. […]

[2] = test system: non-small cell lung carcinoma (NSCLC) patients; assay: Japan Phase III Clinical Trial: decrease in hemoglobin, erythrocyte and hematocrit levels; format: in vivo; details: Tavocept arm with paclitaxel and cisplatin, Fig. 3
From the text: as §1, §2

[3] = test system: non-small cell lung carcinoma (NSCLC); assay: Japan Phase III Clinical Trial: tumor response rate to chemotherapy; format: in vivo, patients; details: Tavocept arm with paclitaxel and cisplatin, Fig. 4
From the text: as §1, with “In order to make all these evaluations, Tavocept™ (approximately14-22 g/m^2, most preferably approximately 18.4 g/m^2) or placebo (0.9% NaCl) was administered to non-small cell lung carcinoma (NSCLC) patients, including adenocarcinoma patients, under chemotherapy with paclitaxel (approximately 160-190 mg/m^2, most preferably approximately 175 mg/m^2) and cisplatin (approximately 60-100 mg/m^2, most preferably approximately 80 mg/m^2), every 3 weeks (and repeated for a minimum of 2 cycles).” left out

adenocarcinoma = assay: Japan Phase III Clinical Trial: patient survival, adenocarcinoma; format: in vivo, patients
From the text: as §1, with “In order to make all these evaluations, Tavocept™ (approximately14-22 g/m^2, most preferably approximately 18.4 g/m^2) or placebo (0.9% NaCl) was administered to non-small cell lung carcinoma (NSCLC) patients, including adenocarcinoma patients, under chemotherapy with paclitaxel (approximately 160-190 mg/m^2, most preferably approximately 175 mg/m^2) and cisplatin (approximately 60-100 mg/m^2, most preferably approximately 80 mg/m^2), every 3 weeks (and repeated for a minimum of 2 cycles).” left out

[4] = test system: non-small cell lung carcinoma (NSCLC) patients; assay: Japan Phase III Clinical Trial: other chemotherapy-related symptoms and toxicities; format: in vivo
From the text: as §1
Data was recently unblinded from a multicenter double-blind randomized placebo-controlled Phase III clinical trial of the Formula (I) compound Tavocept™ (also known as BNP7787, disodium 2,2'-dithio-bis-ethane sulfonate, and dimesna) conducted in Japan (hereinafter the "Japan Phase III Clinical Trial") and involving patients with advanced non-small cell lung carcinoma (NSCLC) who received the chemotherapeutic drugs paclitaxel and cisplatin.
Patients admitted into the trial included those patients without previous treatment (excluding surgical treatment, administration of Picibanil into the serous membrane, irradiation of 30% or less hematopoietic bone, or oral chemotherapeutic agents within 3 months of entry in the trial).
The Japan Phase III Clinical Trial was conducted as a double-blind study because peripheral neuropathy is diagnosed based on subjective symptoms evaluated through clinical interviews, lab tests, and the like. Accordingly, evaluations by both physicians and patients are highly important. […] A placebo was used as control since there is no established therapy or drug for preventing peripheral neuropathy. Because the severity of peripheral neuropathy is evaluated based on patients' reports (i.e., subjective symptoms), the Peripheral Neuropathy Questionnaire (PNQ^©) was used in primary evaluation. CIPN-20 and NCI-CTC were used in secondary evaluation. The incidence and severity of adverse reactions, time to their onset, etc. and the like, were compared between patients treated with Tavocept™ and those given a placebo using the aforementioned methods.
In order to conduct the present trial, Tavocept™ (approximately14-22 g/m^2, most preferably approximately 18.4 g/m^2) or placebo (0.9% NaCl) was administered to non-small cell lung carcinoma (NSCLC) patients receiving chemotherapy with paclitaxel (approximately 160-190 mg/m^2, most preferably approximately 175 mg/m^2) and cisplatin (approximately 60-100, most preferably approximately 80 mg/m^2), every 3 weeks (and repeated for a minimum of 2 cycles).

[5] = test system: patients with advanced non-small cell lung carcinoma (NSCLC); assay: Japan Phase III Clinical Trial: chemotherapy-induced peripheral neuropathy (Peripheral Neuropathy Questionnaire, PNQ); format: in vivo
From the text: As utilized herein, the term "clinical trial" or "trial", refers to the Japan Phase III Clinical Trial disclosed in the present invention which was utilized to show the ability of Tavocept™ (also referred to in the literature as disodium 2,2'-dithio-bis-ethane sulfonate, dimesna, or BNP7787) to prevent and/or reduce peripheral neuropathy induced by paclitaxel/cisplatin combination therapy. […] The effects of Tavocept™ on the Quality of Life (QOL) of patients under anticancer treatment was also evaluated using the QOL questionnaire, EORTC QLQ-C30. Whether or not Tavocept™ would affect the efficacy of paclitaxel/cisplatin combination therapy was also evaluated based on the response rate, aggravation-free survival period, and total survival period. […]
The Japan Phase III Clinical Trial was conducted as a double-blind study because peripheral neuropathy is diagnosed based on subjective symptoms evaluated through clinical interviews, lab tests, and the like. […] Because the severity of peripheral neuropathy is evaluated based on patients' reports (i.e., subjective symptoms), the Peripheral Neuropathy Questionnaire (PNQ^©) was used in primary evaluation. […]

[6] = clinical trial population, summary statement

O=S(=O)([O-])CCSSCCS(=O)(=O)[O-].[Na+].[Na+] [Tavocept™, disodium 2,2'-dithio-bis-ethane sulfonate]
increase in median survival time ([1]; NSCLC patients, paclitaxel/Tavocept/cisplatin vs paclitaxel/saline placebo/cisplatin, Fig. 5): up to 40 days | survival period ([1]; female NSCLC patients, paclitaxel/Tavocept/cisplatin vs paclitaxel/saline placebo/cisplatin, Fig. 6): longer survival period | survival times ([1]; patients with advanced NSCLC receiving Tavocept and chemotherapy, summary statement): increased survival times | patients with Grade 3 (severe) decrease in hematocrit levels ([2]; placebo arm 5): 1 patients | patients with Grade 3 (severe) decrease in red blood cell ([2]; placebo arm 5): 1 patients | patients with Grade 3 (severe) decrease in hemoglobin ([2]; placebo arm 8): 2 patients | response rate as measured by the IRC ([3]; Independent Radiological Committee, placebo arm 28.6%): 33.3% | Response Rate, as measured by physicians ([3]; placebo arm 33.0%): 41.9% | increase in median survival time (adenocarcinoma; adenocarcinoma patients, paclitaxel/Tavocept/cisplatin vs paclitaxel/saline placebo/cisplatin, Fig. 7): up to 138 days | survival time (adenocarcinoma; patients with adenocarcinoma receiving Tavocept and chemotherapy, summary statement): medically-important increase | chemotherapy-induced kidney damage [4, 6]: medically-important reductions | chemotherapy-induced vomiting/emesis [4, 6]: medically-important reductions | anorexia ([4]; p = 0.0029, paclitaxel/Tavocept/cisplatin vs placebo regimen): reductions | fatigue ([4]; p = 0.0163, paclitaxel/Tavocept/cisplatin vs placebo regimen): reductions | nausea/vomiting ([4]; p = 0.0240, paclitaxel/Tavocept/cisplatin vs placebo regimen): reductions | diarrhea ([4]; p = 0.0859, paclitaxel/Tavocept/cisplatin vs placebo regimen): reductions | insomnia ([4]; p = 0.1108, paclitaxel/Tavocept/cisplatin vs placebo regimen): reductions | constipation ([4]; p = 0.1114, paclitaxel/Tavocept/cisplatin vs placebo regimen): reductions | chemotherapy-induced peripheral neuropathy ([5]; Tavocept and chemotherapy vs chemotherapy and placebo, summary statement): medically-important reductions | reduction in severe (Grade D or E) peripheral neuropathy ([5]; paclitaxel/Tavocept/cisplatin regimen vs paclitaxel/saline placebo/cisplatin regimen, PNQ, Fig. 1): ~50%
